Results: ChEMBL document CHEMBL4342498, “Design and Discovery of an Orally Efficacious Spiroindolinone-Based Tankyrase Inhibitor for the Treatment of Colon Cancer” (J Med Chem, 2020)
Values after ≈ are worked out from the molar mass of the structure shown.

Key:
[1] = biological target: T1, Poly [ADP-ribose] polymerase tankyrase-2 (Homo sapiens, UniProt Q9H2K2); test: Inhibition of recombinant human N-terminal TEV cleavage site-fused/FLAG-poly his-tagged TNKS2 ARC5-SAM-PARP domain (613 to 1166 residues) expressed in Escherichia coli assessed as reduction in auto-PARylation preincubated for 10 mins followed by biotinylated-NAD+ addition and measured after 45 mins by ELISA
T1 sequence (Q9H2K2 whole entry): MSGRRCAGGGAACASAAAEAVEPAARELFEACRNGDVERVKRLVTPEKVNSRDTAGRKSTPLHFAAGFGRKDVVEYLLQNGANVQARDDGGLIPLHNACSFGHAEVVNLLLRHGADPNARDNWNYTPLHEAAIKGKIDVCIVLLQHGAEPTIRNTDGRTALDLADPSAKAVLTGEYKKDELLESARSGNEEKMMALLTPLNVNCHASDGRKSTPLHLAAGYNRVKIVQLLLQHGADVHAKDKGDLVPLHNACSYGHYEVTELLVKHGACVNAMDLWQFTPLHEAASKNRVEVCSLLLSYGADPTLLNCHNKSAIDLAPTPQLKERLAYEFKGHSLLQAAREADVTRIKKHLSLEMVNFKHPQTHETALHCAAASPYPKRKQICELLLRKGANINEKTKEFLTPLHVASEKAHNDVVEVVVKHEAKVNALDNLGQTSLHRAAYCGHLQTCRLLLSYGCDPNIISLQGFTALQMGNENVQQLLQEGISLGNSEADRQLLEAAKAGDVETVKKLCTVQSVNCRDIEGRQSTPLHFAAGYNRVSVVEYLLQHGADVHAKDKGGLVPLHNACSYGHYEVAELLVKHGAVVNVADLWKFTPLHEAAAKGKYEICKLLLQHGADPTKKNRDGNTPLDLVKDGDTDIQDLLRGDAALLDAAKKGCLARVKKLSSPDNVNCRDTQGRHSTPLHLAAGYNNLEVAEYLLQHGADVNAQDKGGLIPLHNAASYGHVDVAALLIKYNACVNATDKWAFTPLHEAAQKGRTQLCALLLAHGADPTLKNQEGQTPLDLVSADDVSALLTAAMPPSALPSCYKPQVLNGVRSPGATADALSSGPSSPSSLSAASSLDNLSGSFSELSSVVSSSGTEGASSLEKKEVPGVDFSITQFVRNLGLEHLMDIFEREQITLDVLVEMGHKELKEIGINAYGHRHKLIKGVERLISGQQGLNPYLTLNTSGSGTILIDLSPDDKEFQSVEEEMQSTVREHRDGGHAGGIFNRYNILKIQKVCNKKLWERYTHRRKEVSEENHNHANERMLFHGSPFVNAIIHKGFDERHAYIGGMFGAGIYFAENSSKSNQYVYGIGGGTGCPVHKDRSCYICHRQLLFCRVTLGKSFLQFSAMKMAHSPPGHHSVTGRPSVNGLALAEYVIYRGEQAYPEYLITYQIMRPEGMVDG

COLO 320DM = test: Antiproliferative activity against human COLO320DM cells assessed as inhibition of cell growth measured after 4 days by CellTiter-Glo assay; format: functional; details: 96 h
[2] = Stability in mouse liver microsomes assessed as parent compound remaining at 1 uM measured after 60 mins in presence of NADPH by LC-MS/MS analysis; format: ADME, Microsome; details: read-out: Stability
[3] = Stability in human liver microsomes assessed as parent compound remaining at 1 uM measured after 60 mins in presence of NADPH by LC-MS/MS analysis; format: ADME, Microsome; details: read-out: Stability
MDR1 = test: Efflux ratio of permeability across basolateral to apical side over apical to basolateral side in MDCK2-MDR1 cells; format: ADME, cell-based, Canis lupus familiaris; details: dog, MDCK-MDR1
[4] = Efflux ratio of permeability across basolateral to apical side over apical to basolateral side in MDCK2 cells; format: ADME, cell-based, Canis lupus familiaris, MDCK-II; details: dog, mdck
[5] = Net efflux ratio of permeability across basolateral to apical side over apical to basolateral side in MDCK2-MDR1 cells to MDCK2 cells; format: ADME, cell-based, Canis lupus familiaris; details: dog, mdck
[6] = biological target: T2, Poly [ADP-ribose] polymerase tankyrase-1 (Homo sapiens, UniProt O95271)
T2 sequence (O95271 whole entry): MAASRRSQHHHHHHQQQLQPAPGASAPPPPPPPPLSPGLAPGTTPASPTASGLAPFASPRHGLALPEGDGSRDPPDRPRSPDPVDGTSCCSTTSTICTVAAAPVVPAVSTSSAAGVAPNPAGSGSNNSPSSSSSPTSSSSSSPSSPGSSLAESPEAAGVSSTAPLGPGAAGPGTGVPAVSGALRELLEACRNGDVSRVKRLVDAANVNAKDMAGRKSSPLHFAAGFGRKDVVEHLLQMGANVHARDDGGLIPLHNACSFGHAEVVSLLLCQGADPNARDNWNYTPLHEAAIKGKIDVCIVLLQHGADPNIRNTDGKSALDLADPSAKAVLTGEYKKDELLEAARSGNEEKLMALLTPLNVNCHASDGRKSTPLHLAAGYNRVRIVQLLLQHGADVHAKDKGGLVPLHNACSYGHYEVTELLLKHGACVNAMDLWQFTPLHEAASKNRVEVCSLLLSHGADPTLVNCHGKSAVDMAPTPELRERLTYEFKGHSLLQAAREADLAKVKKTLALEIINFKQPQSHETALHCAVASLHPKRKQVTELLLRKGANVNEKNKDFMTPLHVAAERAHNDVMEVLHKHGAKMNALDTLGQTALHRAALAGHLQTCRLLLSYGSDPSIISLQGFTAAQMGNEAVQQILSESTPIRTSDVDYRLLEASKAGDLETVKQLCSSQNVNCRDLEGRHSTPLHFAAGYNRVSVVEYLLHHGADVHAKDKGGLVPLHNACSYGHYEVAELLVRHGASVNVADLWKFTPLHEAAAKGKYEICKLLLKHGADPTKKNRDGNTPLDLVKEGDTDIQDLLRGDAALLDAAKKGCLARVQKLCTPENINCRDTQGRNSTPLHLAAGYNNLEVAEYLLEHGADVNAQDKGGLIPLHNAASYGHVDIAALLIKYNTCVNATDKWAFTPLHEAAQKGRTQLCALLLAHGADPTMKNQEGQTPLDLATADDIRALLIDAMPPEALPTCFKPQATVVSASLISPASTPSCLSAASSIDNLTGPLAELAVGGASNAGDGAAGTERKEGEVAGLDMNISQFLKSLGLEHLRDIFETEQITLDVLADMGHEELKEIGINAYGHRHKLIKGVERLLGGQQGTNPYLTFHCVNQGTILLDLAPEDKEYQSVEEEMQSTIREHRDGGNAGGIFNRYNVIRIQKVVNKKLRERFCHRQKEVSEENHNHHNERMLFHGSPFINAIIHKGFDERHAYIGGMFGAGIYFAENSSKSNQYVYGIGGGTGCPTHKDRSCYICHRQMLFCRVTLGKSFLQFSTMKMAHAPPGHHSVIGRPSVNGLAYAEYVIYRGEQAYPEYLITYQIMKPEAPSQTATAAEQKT
Description: Inhibition of recombinant human N-terminal TEV cleavage site-fused/FLAG-poly his-tagged TNKS SAM-PARP domain (1024 to 1327 residues) expressed in Escherichia coli assessed as reduction in auto-PARylation preincubated for 10 mins followed by biotinylated-NAD+ addition and measured after 45 mins by ELISA

Tankyrase 1/2 [7] = biological target: T3, Tankyrase 1/2 (Homo sapiens, UniProt Q9H2K2+O95271); details: hek293
T3 sequence (Q9H2K2 whole entry): T1 sequence (Q9H2K2 whole entry)
T3 sequence (O95271 whole entry): T2 sequence (O95271 whole entry)
Description: Inhibition of TNKS/TNKS2 (unknown origin) expressed in HEK293 cells assessed as reduction in Wnt-signaling measured after 24 hrs by TCF-luciferase reporter gene assay

Tankyrase 1/2 [8] = biological target: T3, Tankyrase 1/2
Description: Inhibition of TNKS/TNKS2 (unknown origin) expressed in human DLD1 cells assessed as reduction in Wnt-signaling measured after 24 hrs by TCF-luciferase reporter gene assay

physchem = details: phosphate buffered saline, pH 7.4

| Structure (SMILES) | IC50 [1] | GI50 (COLO 320DM) | remaining at 1 h, 1 µM [2] | remaining at 1 h, 1 µM [3] | efflux ratio (MDR1) | efflux ratio [4] | Ratio [5] | IC50 [6] | IC50 (Tankyrase 1/2 [7]) | IC50 (Tankyrase 1/2 [8]) | solubility at 1 h, 200 µM (physchem) |
| --- | --- | --- | --- | --- | --- | --- | --- | --- | --- | --- | --- |
| CN(C)c1cc(F)c2c(c1)N(C)C(=O)C21CCN(c2nc3c(c(=O)[nH]2)CCCN3C)CC1 | 13 nM | 1170 nM | 1.8% | 1.8% | 2.7 | 1.1 | 2.5 | 6.3 nM | 4.6 nM | 20.7 nM | 7.4 µg/mL (≈ 16.8 µM) |
| CN1CCCc2c1nc(N1CCC3(CC1)C(=O)N(C)c1cc(N4CCCCC4)cc(F)c13)[nH]c2=O | 49.1 nM | 300 nM | 10.5% | 1.5% | 2.3 | 1 | 2.3 | 21.3 nM | 0.7 nM | 6.4 nM | 5 µg/mL (≈ 10.4 µM) |
| CN(C)CCOc1cc(F)c2c(c1)N(C)C(=O)C21CCN(c2nc3c(c(=O)[nH]2)CCCN3C)CC1 | 11.1 nM | 810 nM | 83.7% | 54.4% | 22.7 | 9.2 | 2.5 | 4.9 nM | 0.3 nM | 6.1 nM | 95 µg/mL (≈ 196 µM) |
| CN1CCCc2c1nc(N1CCC3(CC1)C(=O)N(C)c1cc(OCCO)cc(F)c13)[nH]c2=O | 4.7 nM | 160 nM | 0.7% | 19.8% | 14.9 | 6.2 | 2.4 | 3.5 nM | 0.8 nM | 2.3 nM | 75.1 µg/mL (≈ 164 µM) |

The remaining compounds from weak to strong by IC50 [1], led by results:

| IC50 [1] | GI50 (COLO 320DM) | remaining at 1 h, 1 µM [2] | remaining at 1 h, 1 µM [3] | efflux ratio (MDR1) | efflux ratio [4] | Ratio [5] | IC50 [6] | IC50 (Tankyrase 1/2 [7]) | IC50 (Tankyrase 1/2 [8]) | solubility at 1 h, 200 µM (physchem) | Structure (SMILES) |
| --- | --- | --- | --- | --- | --- | --- | --- | --- | --- | --- | --- |
| 32.4 nM | 70 nM | 1% | 8% | 2 | 0.7 | 2.9 | 16.2 nM | 0.2 nM | 2.4 nM | 1.3 µg/mL (≈ 2.69 µM) | CN1CCCc2c1nc(N1CCC3(CC1)C(=O)N(CC(F)(F)F)c1cc(F)cc(F)c13)[nH]c2=O |
| 20.2 nM | 850 nM | 82.7% | 33% | 23.1 | 6.2 | 3.7 | 11.1 nM | 0.1 nM | 4.3 nM | 102 µg/mL (≈ 200 µM) | C[C@@H]1CN(c2cc(F)c3c(c2)N(C)C(=O)C32CCN(c3nc4c(c(=O)[nH]3)CCCN4C)CC2)C[C@H](C)N1 |
| 12.2 nM | 200 nM | 0.3% | 0% | 8.4 | 1.2 | 7 | 7.8 nM | 0.3 nM | 7.2 nM | 9.3 µg/mL (≈ 19.7 µM) | CN1CCCc2c1nc(N1CCC3(CC1)C(=O)N(CC1COC1)c1cc(F)cc(F)c13)[nH]c2=O |
